In paper PMC10897196, “Structure–activity characteristics of phenylalanine analogs selectively transported by L-type amino acid transporter 1 (LAT1)” (Scientific Reports, 2024):

Key:
human LAT2 = molecular target: T1, human LAT2 (Homo sapiens, UniProt Q9UHI5); assay: Efflux of pre-loaded L-[14C]alanine from HEK293-hLAT2 cells induced by extracellular compounds; format: cell-based; details: 1 min
T1 construct: expressed in transfected cells
T1 sequence (Q9UHI5 1-535): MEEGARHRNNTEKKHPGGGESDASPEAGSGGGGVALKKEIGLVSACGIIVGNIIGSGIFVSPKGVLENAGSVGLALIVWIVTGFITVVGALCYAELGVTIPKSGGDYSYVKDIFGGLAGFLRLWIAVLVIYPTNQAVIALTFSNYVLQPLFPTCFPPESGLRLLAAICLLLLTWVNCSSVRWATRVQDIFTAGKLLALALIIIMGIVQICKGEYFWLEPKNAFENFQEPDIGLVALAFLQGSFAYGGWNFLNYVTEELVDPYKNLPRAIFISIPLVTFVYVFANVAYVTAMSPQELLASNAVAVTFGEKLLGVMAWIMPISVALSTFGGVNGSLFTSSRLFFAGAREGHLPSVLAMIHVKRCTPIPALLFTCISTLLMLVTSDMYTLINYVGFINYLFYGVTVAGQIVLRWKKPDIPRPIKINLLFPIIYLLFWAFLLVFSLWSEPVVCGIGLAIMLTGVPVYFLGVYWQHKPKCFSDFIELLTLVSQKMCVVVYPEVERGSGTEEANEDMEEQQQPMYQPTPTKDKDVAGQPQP
T1 sequence (P08195 1-529 partner): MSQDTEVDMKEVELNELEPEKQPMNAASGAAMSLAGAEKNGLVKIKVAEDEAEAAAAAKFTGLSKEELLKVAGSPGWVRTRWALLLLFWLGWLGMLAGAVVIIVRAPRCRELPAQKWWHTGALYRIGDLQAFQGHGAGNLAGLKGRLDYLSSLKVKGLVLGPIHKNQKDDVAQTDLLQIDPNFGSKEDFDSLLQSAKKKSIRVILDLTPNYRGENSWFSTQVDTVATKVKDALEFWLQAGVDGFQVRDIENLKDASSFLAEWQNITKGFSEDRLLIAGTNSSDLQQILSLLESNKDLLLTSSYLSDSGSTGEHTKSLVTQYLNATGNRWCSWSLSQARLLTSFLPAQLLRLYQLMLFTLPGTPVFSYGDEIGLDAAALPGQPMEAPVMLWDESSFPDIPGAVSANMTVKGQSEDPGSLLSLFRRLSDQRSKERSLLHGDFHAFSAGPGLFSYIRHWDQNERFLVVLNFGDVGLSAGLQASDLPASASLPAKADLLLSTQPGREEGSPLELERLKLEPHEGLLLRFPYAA
Description: (§1) We evaluated the efflux of pre-loaded L-[^14C]leucine from LAT1 and pre-loaded L-[^14C]alanine from LAT2 induced by extracellularly applied compounds.
(§2) Efflux experiments were performed as described previously. Cells cultured 48 h were pre-loaded with 5 μM L-[^14C]leucine or L-[^14C]alanine for 10 min at 37 °C. The cells were then washed, and the efflux was induced by incubating cells for 1 min in either the absence or presence of non-radiolabeled test compounds at indicated concentrations. The efflux time of 1 min fell within the linear range of time-dependent substrate efflux mediated by LAT1 and LAT2 (Supplementary Fig. S2). Following incubation, the medium was collected and radioactivity was measured in both the medium and the cells. Efflux was quantified as the percentage of radioactivity released into the medium, calculated using the formula: radioactivity of medium/(radioactivity of medium + radioactivity of cells) × 100%.
(§3) The kinetic parameters for the efflux of L-[^14C]leucine or L-[^14C]alanine induced by various concentrations of extracellularly-applied test compounds were analyzed. The baseline efflux values—those obtained in the absence of test compounds—were subtracted from the values measured in the presence of the compounds. The resultant data were fitted to Michaelis–Menten kinetics to determine the Km and Vmax by nonlinear regression analysis using “enzyme kinetics-velocity as a function of substrate” module within GraphPad Prism software.

human LAT1 = molecular target: T2, human LAT1 (Homo sapiens, UniProt Q01650); assay: Efflux of pre-loaded L-[14C]leucine from HEK293-hLAT1 cells induced by extracellular compounds; format: cell-based; details: 1 min
T2 construct: expressed in transfected cells
Description: as §1, §2, §3

[1] = LAT1, L-[14C]leucine efflux, mean ± S.E.M., n = 3

T2 sequence (Q01650 whole entry, one chain of several): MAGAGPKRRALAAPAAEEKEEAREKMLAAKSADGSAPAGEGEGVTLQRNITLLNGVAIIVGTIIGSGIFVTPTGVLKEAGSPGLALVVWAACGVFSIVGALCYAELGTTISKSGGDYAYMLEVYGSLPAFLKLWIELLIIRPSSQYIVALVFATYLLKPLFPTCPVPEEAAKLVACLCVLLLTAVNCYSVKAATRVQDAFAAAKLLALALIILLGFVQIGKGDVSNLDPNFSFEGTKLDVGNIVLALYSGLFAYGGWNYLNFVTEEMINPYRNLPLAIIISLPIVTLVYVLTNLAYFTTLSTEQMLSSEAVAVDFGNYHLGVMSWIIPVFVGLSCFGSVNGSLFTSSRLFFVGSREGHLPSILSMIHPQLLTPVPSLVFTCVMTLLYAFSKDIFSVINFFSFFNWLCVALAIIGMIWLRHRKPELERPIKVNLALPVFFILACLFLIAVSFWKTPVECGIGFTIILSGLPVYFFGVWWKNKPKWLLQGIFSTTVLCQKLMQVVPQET

N[C@]1(C(=O)O)CCc2ccccc2C1 [bicyclic-Phe, (R)-2-amino-1,2,3,4-tetrahydro-2-naphthoic acid]
Vmax of efflux (% radioactivity/min) (human LAT2; LAT2, L-[14C]alanine efflux, mean ± S.E.M., n = 3): 10.05 ± 0.27 % radioactivity/min
LAT2-mediated L-[14C]alanine efflux induced (in words) (human LAT2; compounds at 10, 30, 100 μM): not efficiently transported by LAT2
Km (human LAT1; [1]): 27.3 ± 3.08 µM
Vmax of efflux (% radioactivity/min) (human LAT1; [1]): 15.43 ± 0.40 % radioactivity/min
LAT1-mediated L-[14C]leucine efflux induced (in words) (human LAT1; compounds at 10, 30, 100 μM): transported by LAT1 as substrates
